Reference: patent US8039670B2, “Analogs of alpha galactosyceramide and uses thereof” (Ludwig Institute for Cancer Research, priority 2005, dated 2011)

Tests used:
[1] = biological target: T1, human invariant Vα24^+/Vβ11^+ TCR binding to hCD1d-lipid complex (Homo sapiens, UniProt P15813); assay: Surface plasmon resonance (Biacore) of soluble iNKT TCR binding to hCD1d monomers loaded with analogs; conditions: for Kd: equilibrium binding, read-out: Kd of the TCR binding to the monomer; for koff: kinetic measurement, read-out: rate of dissociation (Koff) between the TCR and the monomer
T1 construct: soluble human CD1d molecules; made in house
Experimental: Affinity and kinetics of iNKT TCR binding to hCD1d complexed with α-GalCer or OCH. Increasing concentrations from 0.4 μM to 194 μM (two-fold dilution) of iNKT TCR were injected for 5 seconds over the indicated hCD1d-GSL complexes. The binding responses of 5 concentrations are shown superimposed. The panels on the right show binding response at equilibrium.
The affinities of a soluble NKT cell TCR for human CD1d molecules refolded with different analogs of α-GalCer were measured. Equilibrium binding and kinetic measurements respectively were made for α-GalCer (A and B), threitolceramide (C and D), 4S-threitolceramide (E and F), 4R-threitolceramide (G and H). The Kd values (μM) were calculated from equilibrium binding. The Kon values shown were calculated from Koff and Kd.
We then assessed whether the length of the acyl and sphingosine chains could affect the affinity of iNKT TCR binding to glycolipid-CD1d complex. We refolded Vα24 and Vβ11 chains of the iNKT TCR as previously described (Gadola, Koch et al, J Exp Med, 2006, 203; 699-710) and used the purified and refolded iNKT TCR in surface plasmon resonance studies against immobilized biotinylated CD1d monomers loaded with either α-GalCer or OCH.
To characterize the affinity of analogs of α-GalCer, biotinylated hCD1d monomers were generated using previously described protocols (Karadimitris, Gadola et al, Proc Natl Acad Sci USA, 2001, 98; 3294-8) bound to the different analogs. Surface plasmon resonance (Biacore) analysis was performed using a soluble disulphide-linked human invariant Vα24^+/Vβ11^+ TCR (Gadola, Koch et al, J Exp Med, 2006, 203; 699-710) to measure the equilibrium dissociation constants (Kd) of binding of the TCR to different monomers (FIG. 3).

iNKT cell clone = assay: Cytokine release from iNKT cell clone stimulated with analog-pulsed C1R-human CD1d cells; type: cell-based; conditions: 24 h, titration
Experimental: FIG. 9 Inositol-based α-GalCer derivatives are functional in vitro. Human monocyte-derived DC were pulsed with 150 ng of different inositol analogs and co-cultured with iNKT cells for 24 h. […] Numbers indicate the mean fluorescence intensity of the histogram gated on CD11c^+ cells. 6-Deoxy and 6-Sulfono-myo-inositolceramide induce significant (B) IL-12p40 and (C) IFN-γ production by DC and iNKT cells respectively in the supernatants of co-cultured DC and iNKT cells. […] Release of (D) IFN-g and (E) IL-4 from iNKT cells after 24 h in culture with C1R-human CD1d cells pulsed with α-GalCer, 6-Deoxy- or 6-Sulfono-myo-inositolceramide.
The three inositol compounds were titrated on C1R cells expressing human CD1d and used to stimulate an iNKT cell clone.

human DC = assay: DC maturation in co-culture of human DC and iNKT cells (flow cytometry CD83, CD86, CD38); type: cell-based; conditions: data not shown
Experimental: Different analogs of α-GalCer as indicated or LPS were added to co-cultures of human DC and iNKT cells. (A) Maturation of the DC was assessed after 40 h, gating on CD11c positive cells. Histograms indicate the CD83 and CD86 profiles of DC from different treatments; the percentages indicate the percentage of CD83hi mature DC and the numbers in parenthesis, the mean fluorescence intensity of the population contained within the labeled gate. DC and iNKT cells were co-cultured in the presence of different analogs of α-GalCer for 24 hours. Supernatants were analyzed using ELISA for the presence of (B) IL-12p40 released by the DC and (C) IFN-γ from the iNKT cells. […] Cells were co-cultured in the presence of the indicated concentration of analog and the percentages of DC with increased CD83/CD80 are shown. […] Viability of α-GalCer or analog-pulsed DC was assessed after 40 h co-culture in the presence of iNKT cells by flow cytometry. Cells were stained with propidium iodide and the percentage of live CD11c gated cells remaining in the culture are shown.
Human monocyte-derived DC were pulsed with 150 ng of different inositol analogs and co-cultured with iNKT cells for 24 h. […] Numbers indicate the mean fluorescence intensity of the histogram gated on CD11c^+ cells.
Immature human DC were cultured in the presence of a human iNKT cell clone with or without analogs or vehicle at different concentrations.
To compare the functions of high affinity α-GalCer, intermediate affinity threitolceramide with the known, low affinity analog OCH, the three compounds were titrated onto DC and used to present to iNKT cells. Maturation of DC and DC viability were examined after 48 h.

| Kd [1] [µM] | koff [1] [s⁻¹] | Molecule | IFN-γ release from iNKT cells (iNKT cell clone) | IL-4 release from iNKT cells (iNKT cell clone) | DC maturation and cytokine production from iNKT cells (first test) (human DC) |
| --- | --- | --- | --- | --- | --- |
| 3.84 | 0.65 | CCCCCCCCCCCCCCCCCCCCCCCCCC(=O)N[C@@H](COC[C@H](O)[C@@H](O)[C@@H](O)c1ccccc1)[C@H](O)[C@H](O)CCCCCCCCCCCCCC [Compound 14, 4-(S)-Phenyl Threitol Ceramide] |  |  |  |
| 4.25 | 0.506 | CCCCCCCCCCCCCCCCCCCCCCCCCC(=O)N[C@@H](COC[C@H](O)[C@@H](O)[C@H](O)c1ccccc1)[C@H](O)[C@H](O)CCCCCCCCCCCCCC [Compound 15, 4-(R)-Phenyl Threitol Ceramide] |  |  |  |
|  |  | D-myo-Inositol Ceramide Salt [Compound 13] | little or no IFN-γ release | detectable IL-4 was produced when higher concentrations of the compound were used |  |
|  |  | D-myo-Inositol Ceramide [Compound 12] | significant levels of both cytokines | significant levels of both cytokines |  |
|  |  | Inositol Ceramide [Compound 10] | little or no IFN-γ and IL-4 | little or no IFN-γ and IL-4 | induced detectable DC maturation and cytokine production from iNKT cells |
